Experimental data published in patent publication US5202310A, “Cyclosporine metabolites” (priority 1990, dated 1993).
Values joined by “and” are separate entries in the source; they are usually repeats but may differ in a detail not shown here. Identical values can stand only once. Like-named read-outs stand apart in the source and are kept apart here.

Assays:
IL1 = assay: Effect on IL1 (method of Freed); type: cell-based; conditions: compared with cyclosporine A
Source text: (§1) The effect of CM Peak H on IL1, IL2 and IL2 receptor activity was studied using the method as described in Freed, B. M., Transplantation 43:123, 1987.

IL2 = assay: Effect on IL2 (method of Freed); type: cell-based; conditions: compared with cyclosporine A
Source text: as §1

IL2 receptors = assay: Effect on IL2 receptor activity (method of Freed); type: cell-based; conditions: compared with cyclosporine A
Source text: as §1

LLC-PK1 cells [1] = conditions: renal epithelial cell line LLC-PK1; 19 h + 5 h incubation
[2] = system: Renal glomerular mesangial cells; conditions: CM effects only at concentrations greater than 1 and 5 μg/ml
L2 cells [3] = conditions: murine lung cell line L2
LLC-PK1 cells [4] = conditions: renal epithelial cell line LLC-PK1
[5] = system: Renal glomerular mesangial cells; conditions: CM effects only at concentrations greater than 1 and 5 μg/ml; remark: listed apart in the source
L2 cells [6] = conditions: murine lung cell line L2; remark: listed apart in the source
LLC-PK1 cells [7] = conditions: renal epithelial cell line LLC-PK1; CsA: to 1 ng/ml
[8] = system: Renal glomerular mesangial cells; conditions: CsA: to 1 ng/ml, CM effects only at concentrations greater than 1 and 5 μg/ml
L2 cells [9] = conditions: murine lung cell line L2; remark: listed apart in the source
phospholipase A2 = conditions: at concentrations of 1 mg/ml or greater
[10] = for Amount of cyclosporine per liter of bile as determined with internal standard: 100 ml bile extracted, analytical gradient HPLC with CsA internal standard; for Mean % of total concentration of cyclosporine (mean value, n = 5): bile of five CsA treated liver transplant individuals
[11] = CM extracted from bile of liver transplant recipients, relative area by UV spectroscopy
lymphocyte proliferation = conditions: Freed 1987; OL-17 followed by OL-1 and OL-21; cited from earlier work
IL2 production = conditions: Freed 1987; OL-17 followed by OL-1 and OL-21; cited from earlier work
rat = conditions: Ryffel 1988; cited from earlier work

SMILES | Inhibition of DNA synthesis (LLC-PK1 cells [1]) | Inhibition of DNA synthesis [2] | Inhibition of DNA synthesis (L2 cells [3]) | Inhibition of RNA synthesis (LLC-PK1 cells [4]) | Inhibition of RNA synthesis [5] | Inhibition of RNA synthesis (L2 cells [6]) | Inhibition of protein synthesis (LLC-PK1 cells [7]) | Inhibition of protein synthesis [8] | Inhibition of protein synthesis (L2 cells [9]) | Amount of cyclosporine per liter of bile as determined with internal standard [10] [µg/L] | Ability to inhibit lymphocyte proliferation in a mixed lymphocyte reaction, compared to CsA (lymphocyte proliferation) | Ability to inhibit IL2 production, compared to CsA (IL2 production) | Mean % of total concentration of cyclosporine (mean value, n = 5) [10] | also measured
C/C=C/C[C@@H](C)[C@@H](O)[C@H]1C(=O)N[C@@H](CC)C(=O)N(C)CC(=O)N(C)[C@@H](CC(C)C)C(=O)N[C@@H](C(C)C)C(=O)N(C)[C@@H](CC(C)C)C(=O)N[C@@H](C)C(=O)N[C@H](C)C(=O)N(C)[C@@H](CC(C)(C)O)C(=O)N[C@@H](CC(C)C)C(=O)N(C)[C@@H](C(C)C)C(=O)N1C [CM Peak H] | no inhibitory effects | some inhibitory effects | no inhibitory effects | no inhibitory effects | some inhibitory effects | no inhibitory effects | no inhibitory effects | some inhibitory effects | no inhibitory effects | 536 |  |  |  | Inhibiting formation of, and action of IL1 (IL1): as effective as cyclosporine A; Inhibiting formation of, and action of IL2 (IL2): as effective as cyclosporine A; Inhibiting formation of, and action of IL2 receptors (IL2 receptors): as effective as cyclosporine A; Inhibition of DNA synthesis ([2]; listed as Metabolite H): least inhibitory effects; Inhibition of RNA synthesis ([5]; listed as Metabolite H): least inhibitory effects; Inhibition of protein synthesis ([8]; listed as Metabolite H): least inhibitory effects; Inhibition of phospholipase A2 activity (phospholipase A2): no such inhibitory activity; Amount in RIA profile of bile ([10]; bile, gradient HPLC/polyclonal antibody RIA): above 250 μg/L CsA equivalents; Percentage of total CM ([11]; listed as H): 6.3%; Percentage of total CM ([11]; listed as peak H): 6.33%
C/C=C/C[C@@H](C)[C@@H](O)[C@H]1C(=O)N[C@@H](CC)C(=O)N(C)CC(=O)N(C)[C@@H](CC(C)C)C(=O)N[C@@H](C(C)C)C(=O)N(C)[C@@H](CC(C)C)C(=O)N[C@@H](C)C(=O)N[C@H](C)C(=O)N(C)[C@@H](CC(C)(C)O)C(=O)N(C)[C@@H](CC(C)C)C(=O)N(C)[C@@H](C(C)C)C(=O)N1C [OL-1, 9-hydroxy cyclosporine A] | no inhibitory effects | some inhibitory effects | no inhibitory effects | no inhibitory effects | some inhibitory effects | no inhibitory effects | no inhibitory effects | some inhibitory effects | no inhibitory effects | 364 | comparable effects | comparable effects |  | 
CC[C@@H]1NC(=O)[C@H]([C@H](O)[C@H](C)C/C=C/CO)N(C)C(=O)[C@H](C(C)C)N(C)C(=O)[C@H](CC(C)C)N(C)C(=O)[C@H](CC(C)(C)O)N(C)C(=O)[C@@H](C)NC(=O)[C@H](C)NC(=O)[C@H](CC(C)C)N(C)C(=O)[C@H](C(C)C)NC(=O)[C@H](CC(C)C)N(C)C(=O)CN(C)C1=O [OL-8, 1,9 dihydroxy cyclosporine A] | no inhibitory effects | some inhibitory effects | no inhibitory effects | no inhibitory effects | some inhibitory effects | no inhibitory effects | no inhibitory effects | some inhibitory effects | no inhibitory effects | 640 |  |  | 10.86 ± 2.4% and 11% | 
CC[C@@H]1NC(=O)[C@H]([C@H](O)[C@H](C)C/C=C/CO)N(C)C(=O)[C@H](C(C)C)N(C)C(=O)[C@H](CC(C)C)N(C)C(=O)[C@H](CC(C)C)N(C)C(=O)[C@@H](C)NC(=O)[C@H](C)NC(=O)[C@H](CC(C)C)N(C)C(=O)[C@H](C(C)C)NC(=O)[C@H](CC(C)C)N(C)C(=O)CN(C)C1=O [OL-17, 1-hydroxy cyclosporine A] | no inhibitory effects | some inhibitory effects | no inhibitory effects | no inhibitory effects | some inhibitory effects | no inhibitory effects | no inhibitory effects | some inhibitory effects | no inhibitory effects | 853 | comparable effects | comparable effects | 16.00 ± 4.4% and 16% | Toxicity in vivo (rat): not toxic
